Data: patent EP1215202A1, “Intermediates for the preparation of possibly substituted 8-cyano-1-cyclopropyl-7-(2,8-diazabicyclo-(4.3.0)-nonan-8-yl)-6-fluoro-1,4-dihydro-4-oxo-3-quinolin carboxylic acids and their derivatives” (BAYER AG, priority 1996, dated 1997)
≈ marks a conversion by molar mass, not a printed value.

Key:
Salmonella spp. S 9659 = assay: MIC (MHK), agar serial dilution on Iso-Sensitest agar; type: cell-based; conditions: SPP.S9659, Stamm S 9659, 37°C, read after ca. 20 h, read-out: MHK-Werte
From the text: (§1) Die minimalen Hemmkonzentrationen (MHK) der erfindungsgemäßen Verbindungen wurden per Reihenverdünnungsverfahren auf Iso-Sensitest Agar (Oxoid) bestimmt. Für jede Prüfsubstanz wurde eine Reihe von Agarplatten hergestellt, die bei jeweils doppelter Verdünnung abfallende Konzentrationen des Wirkstoffs enthielten. Die Agarplatten wurden mit einem Multipoint-Inokulator (Denley) beimpft. Zum Beimpfen wurden Übernachtkulturen der Erreger verwandt, die zuvor so verdünnt wurden, dass jeder Impfpunkt ca. 10^4 koloniebildende Partikel enthielt. Die beimpften Agarplatten wurden bei 37°C bebrütet, und das Keimwachstum wurde nach ca. 20 Stunden abgelesen. Der MHK-Wert (µg/ml) gibt die niedrigste Wirkstoffkonzentration an, bei der mit bloßem Auge kein Wachstum zu erkennen war. Die Erfassung der MHK-Werte für Mycoplasmen erfolgte mikroskopisch nach einer Inkubationszeit von 5 bis 7 Tagen.
(§2) In der nachstehenden Tabelle sind die MHK-Werte einer der erfindungsgemäßen Verbindungen im Vergleich zu Enrofloxacin als Referenzverbindung aufgeführt.

[1] = tested on: Fusobacterium necrophorum Ao 9620; assay: as above; type: cell-based; conditions: AO9620, Stamm Ao 9620, 37°C, read after ca. 20 h, read-out: MHK-Werte
in vivo = assay: in vivo; parameters: species or system Hunde (Beagle); conditions: dog, 5 mg/kg
Method: Die verbesserten pharmakokinetischen Eigenschaften der erfindungsgemäßen Substanz aus […] Enrofloxacin in einer Serumkinetik-Studie an Hunden gezeigt werden. Die Substanzen wurden in einer Dosierung von 5 mg/kg Körpergewicht an jeweils 6 Hunden […] Beagle geprüft. Dabei […].), intramuskulär (i. m.) und oral in […] Cross-Over-Anordnung zur Anwendung. Bei allen Applikationsarten konnte gezeigt werden, dass mit der erfindungsgemäßen Substanz aus […]1/2) und […] und somit eine größere Substanzmenge im Organismus zur […] unter der Serumspiegelkurve, AUC0-24).

[2] = tested on: Clostridium perfringens Cl 9606; assay: microbe, parasite or virus in culture; type: cell-based; conditions: CL9606, 20 h, read-out: MHK-Werte
[3] = tested on: Actinomyces pyogenes Am 9602; assay: MIC (MHK), agar serial dilution on Iso-Sensitest agar; type: cell-based; conditions: Trueperella pyogenes, AM9602, Stamm Am 9602, 37°C, read after ca. 20 h, read-out: MHK-Werte
Mycoplasma iowae M 95144 = assay: MIC (MHK), agar serial dilution, mycoplasma read microscopically; type: cell-based; conditions: Malacoplasma iowae, M95144, Stamm M 95144, read microscopically after 5 to 7 days, read-out: MHK-Werte
[4] = tested on: Streptococcus agalactiae Scc 9549; assay: MIC (MHK), agar serial dilution on Iso-Sensitest agar; type: cell-based; conditions: SCC9549, Stamm Scc 9549, 37°C, read after ca. 20 h, read-out: MHK-Werte
[5] = tested on: Pseudomonas aeruginosa P 9503; assay: as above; type: cell-based; conditions: P9503, Stamm P 9503, 37°C, read after ca. 20 h, read-out: MHK-Werte
[6] = tested on: Streptococcus suis Scc 9593; assay: as above; type: cell-based; conditions: SCC9593, Stamm Scc 9593, 37°C, read after ca. 20 h, read-out: MHK-Werte
[7] = tested on: Mycoplasma hyorhinis M 9557; assay: MIC (MHK), agar serial dilution, mycoplasma read microscopically; type: cell-based; conditions: M9557, Stamm M 9557, read microscopically after 5 to 7 days, read-out: MHK-Werte
[8] = tested on: Actinobacillus pleuropneumoniae App 06/94; assay: MIC (MHK), agar serial dilution on Iso-Sensitest agar; type: cell-based; conditions: APP06/94, Stamm App 06/94, 37°C, read after ca. 20 h, read-out: MHK-Werte
[9] = tested on: Bordetella bronchiseptica B 9610; assay: as above; type: cell-based; conditions: B9610, Stamm B 9610, 37°C, read after ca. 20 h, read-out: MHK-Werte
Mycoplasma bovis M 9548 = assay: MIC (MHK), agar serial dilution, mycoplasma read microscopically; type: cell-based; conditions: Mycoplasmopsis bovis, M9548, Stamm M 9548, read microscopically after 5 to 7 days, read-out: MHK-Werte
From the text: as §1, with “Der MHK-Wert (µg/ml) gibt die niedrigste Wirkstoffkonzentration an, bei der mit bloßem Auge kein Wachstum zu erkennen war. Die Erfassung der MHK-Werte für Mycoplasmen erfolgte mikroskopisch nach einer Inkubationszeit von 5 bis 7 Tagen.” left out
as §2

E. coli Ec 9658 = assay: MIC (MHK), agar serial dilution on Iso-Sensitest agar; type: cell-based; conditions: Escherichia coli, EC9658, Stamm Ec 9658, 37°C, read after ca. 20 h, read-out: MHK-Werte

| SMILES | MIC (Salmonella spp. S 9659) [µg/mL] | MIC [1] [µg/mL] | AUC(0-t) at 24 h (in vivo; im) [ng·h/mL] | Cmax (in vivo; im) [ng/mL] | MRT (in vivo; im) [h] | half-life (in vivo; im) [h] | AUC(0-t) at 24 h (in vivo; iv) [ng·h/mL] | MRT (in vivo; iv) [h] | half-life (in vivo; iv) [h] | AUC(0-t) at 24 h (in vivo; po) [ng·h/mL] | Cmax (in vivo; po) [ng/mL] | MRT (in vivo; po) [h] | half-life (in vivo; po) [h] | MIC [2] [µg/mL] | MIC [3] [µg/mL] | MIC (Mycoplasma iowae M 95144) [µg/mL] | MIC [4] [µg/mL] | MIC [5] [µg/mL] | MIC [6] [µg/mL] | other results |
| --- | --- | --- | --- | --- | --- | --- | --- | --- | --- | --- | --- | --- | --- | --- | --- | --- | --- | --- | --- | --- |
| N#Cc1c(N2C[C@@H]3CCCN[C@@H]3C2)c(F)cc2c(=O)c(C(=O)O)cn(C3CC3)c12 [Beispiel 1, 8-Cyan-1-cyclopropyl-7-((1S,6S)-2,8-diazabicyclo[4.3.0]nonan-8-yl)-6-fluor-1,4-dihydro-4-oxo-3-chinolincarbonsäure] | 0.06 (≈ 0.151 µM) | 0.03 (≈ 0.0757 µM) | 19800 | 2400 | 8.5 | 6.9 | 20000 | 11.5 | 10.5 | 17400 | 1300 | 14.7 | 9.5 | 0.25 (≈ 0.631 µM) | 0.25 (≈ 0.631 µM) | 0.06 (≈ 0.151 µM) | 0.03 (≈ 0.0757 µM) | 0.25 (≈ 0.631 µM) | 0.06 (≈ 0.151 µM) | – |
| CCN1CCN(c2cc3c(cc2F)c(=O)c(C(=O)O)cn3C2CC2)CC1 [Enrofloxacin] | 0.5 (≈ 1.39 µM) | 4 (≈ 11.1 µM) | 8400 | 2100 | 3.9 | 2.9 | 10400 | 4.2 | 3.7 | 7000 | 1000 | 7.3 | 4.3 | 4 (≈ 11.1 µM) | 1 (≈ 2.78 µM) | 0.5 (≈ 1.39 µM) | 0.5 (≈ 1.39 µM) | 1 (≈ 2.78 µM) | 0.5 (≈ 1.39 µM) | MIC [7]: 0.06 µg/mL (≈ 0.167 µM); MIC [8]: 0.06 µg/mL (≈ 0.167 µM); MIC [9]: 0.5 µg/mL (≈ 1.39 µM); MIC (Mycoplasma bovis M 9548): 0.25 µg/mL (≈ 0.696 µM); MIC (E. coli Ec 9658): 0.03 µg/mL (≈ 0.0835 µM) |
